Reference: US20180015111A1, “METHODS FOR ON DEMAND PRE-EXPOSURE PROPHYLACTIC TREATMENT OF HIV INFECTION” (INSERM (INSTITUT NATIONAL DE LA SANTE ET DE LA RECHERCHE …, priority 2015, published 2018)

Assay: Drug levels in plasma by LC-MS/MS as measure of adherence (Example 2)
Assay type: in vivo, human
Details: TDF-FTC group, first 113 participants enrolled; limit of detection 0.1 ng/ml tenofovir, 0.4 ng/ml FTC
Experimental: Pill count was the first measure of adherence. Participants were asked to return their study-drug bottles at each visit, and a pill count of unused medication was performed. We also measured drug levels in plasma in the first participants who were enrolled. Plasma was tested for the presence of tenofovir and FTC with the use of a validated liquid chromatography-tandem mass spectrometry method with a limit of detection of 0.1 ng per milliliter for tenofovir and 0.4 ng per milliliter for FTC. This plasma assay was able to detect drugs up to 9 days after intake.

## Nc1nc(=O)n([C@@H]2CS[C@H](CO)O2)cc1F [FTC, 4-amino-5-fluoro-1-[(2R,5S)-2-(hydroxymethyl)-1,3-oxathiolan-5-yl]-1,2-dihydropyrimidin-2-one]
  rate of detection in plasma: 82%

## C[C@H](Cn1cnc2c(N)ncnc21)OCP(=O)(O)O [tenofovir, ({[(2R)-1-(6-amino-9H-purin-9-yl)propan-2-yl]oxy}methyl)phosphonic acid]
  rate of detection in plasma: 86%
